Columns and labels:
[1] = molecular target: T1, AA-LCKS (LPS-specific CMP-Kdo synthetase, KdsB) (Aquifex aeolicus, UniProt O66914); experiment: discontinuous Kdo activation assay, CTP replaced by UTP; assay type: biochemical; settings: co-substrate Kdo; glycine-NaOH pH 9.0 or HEPES-NaOH pH 7.5; 80°C
T1 construct: recombinant from plasmid pT7-kdsB in E. coli BL21-CodonPlus(DE3)-RIL; no tag mentioned; monomer 27 kDa, gel filtration 53 kDa, homodimer

[2] = molecular target: T1, AA-LCKS (LPS-specific CMP-Kdo synthetase, KdsB); experiment: X-ray crystal structure, […] Å; assay type: binding; settings: co-crystallised with 1 mM CTP; two Mg2+ (Mg-A, Mg-B) in active site; pH 7.5; 19°C

T1 sequence (O66914 whole entry): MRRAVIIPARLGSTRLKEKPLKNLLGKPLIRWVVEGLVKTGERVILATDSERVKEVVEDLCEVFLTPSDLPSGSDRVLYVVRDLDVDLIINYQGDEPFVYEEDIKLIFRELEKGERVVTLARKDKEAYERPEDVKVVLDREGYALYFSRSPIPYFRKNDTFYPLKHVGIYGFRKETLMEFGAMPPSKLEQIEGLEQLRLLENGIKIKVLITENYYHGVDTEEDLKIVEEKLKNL

Compound	discontinuous Kdo activation assay, CTP replaced by UTP [1]	X-ray crystal structure, 2.10 Å [2]
O=c1ccn([C@@H]2O[C@H](COP(=O)(O)OP(=O)(O)OP(=O)(O)O)[C@@H](O)[C@H]2O)c(=O)[nH]1 [UTP]	AA-LCKS was able to utilize UTP for Kdo activation but not ATP or GTP	–
Nc1ccn([C@@H]2O[C@H](COP(=O)(O)OP(=O)(O)OP(=O)(O)O)[C@@H](O)[C@H]2O)c(=O)n1 [CTP]	–	The CTP substrate is bound to the N-terminal domain in each molecule of AA-LCKS
